From ChEMBL document CHEMBL2007661, “Compounds: GSK PKIS; Assays: UNC Frye lab” (2012) come the findings set out here.

Several values for one entry are separate records, joined by “and”; a condition that tells them apart may be missing. Identical values can stand only once.

Experiment [1] concerns the target T1, Serine/threonine-protein kinase TBK1 (Homo sapiens) (UniProt Q9UHD2).
T1 sequence (whole entry): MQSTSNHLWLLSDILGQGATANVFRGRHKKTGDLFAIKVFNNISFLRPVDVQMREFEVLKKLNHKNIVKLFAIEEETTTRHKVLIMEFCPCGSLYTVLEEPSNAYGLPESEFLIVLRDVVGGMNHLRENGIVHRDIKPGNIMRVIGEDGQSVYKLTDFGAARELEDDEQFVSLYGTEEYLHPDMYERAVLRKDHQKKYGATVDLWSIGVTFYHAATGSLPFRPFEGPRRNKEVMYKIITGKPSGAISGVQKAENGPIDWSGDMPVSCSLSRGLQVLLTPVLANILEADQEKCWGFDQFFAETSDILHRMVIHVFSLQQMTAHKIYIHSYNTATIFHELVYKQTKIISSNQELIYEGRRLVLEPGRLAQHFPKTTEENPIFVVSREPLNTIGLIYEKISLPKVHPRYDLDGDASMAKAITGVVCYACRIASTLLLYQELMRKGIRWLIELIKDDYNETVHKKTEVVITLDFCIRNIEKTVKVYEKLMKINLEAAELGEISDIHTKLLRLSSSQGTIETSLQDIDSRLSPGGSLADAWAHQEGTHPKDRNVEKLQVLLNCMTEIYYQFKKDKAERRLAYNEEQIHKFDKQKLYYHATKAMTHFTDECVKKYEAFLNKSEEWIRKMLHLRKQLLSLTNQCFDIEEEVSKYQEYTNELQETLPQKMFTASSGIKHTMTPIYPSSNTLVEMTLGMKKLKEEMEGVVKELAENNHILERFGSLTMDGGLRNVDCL
To be noted: at 1 µM.

Experiment [2] addresses T2, Tyrosine-protein kinase Mer (Homo sapiens) (UniProt Q12866).
T2 sequence (whole entry): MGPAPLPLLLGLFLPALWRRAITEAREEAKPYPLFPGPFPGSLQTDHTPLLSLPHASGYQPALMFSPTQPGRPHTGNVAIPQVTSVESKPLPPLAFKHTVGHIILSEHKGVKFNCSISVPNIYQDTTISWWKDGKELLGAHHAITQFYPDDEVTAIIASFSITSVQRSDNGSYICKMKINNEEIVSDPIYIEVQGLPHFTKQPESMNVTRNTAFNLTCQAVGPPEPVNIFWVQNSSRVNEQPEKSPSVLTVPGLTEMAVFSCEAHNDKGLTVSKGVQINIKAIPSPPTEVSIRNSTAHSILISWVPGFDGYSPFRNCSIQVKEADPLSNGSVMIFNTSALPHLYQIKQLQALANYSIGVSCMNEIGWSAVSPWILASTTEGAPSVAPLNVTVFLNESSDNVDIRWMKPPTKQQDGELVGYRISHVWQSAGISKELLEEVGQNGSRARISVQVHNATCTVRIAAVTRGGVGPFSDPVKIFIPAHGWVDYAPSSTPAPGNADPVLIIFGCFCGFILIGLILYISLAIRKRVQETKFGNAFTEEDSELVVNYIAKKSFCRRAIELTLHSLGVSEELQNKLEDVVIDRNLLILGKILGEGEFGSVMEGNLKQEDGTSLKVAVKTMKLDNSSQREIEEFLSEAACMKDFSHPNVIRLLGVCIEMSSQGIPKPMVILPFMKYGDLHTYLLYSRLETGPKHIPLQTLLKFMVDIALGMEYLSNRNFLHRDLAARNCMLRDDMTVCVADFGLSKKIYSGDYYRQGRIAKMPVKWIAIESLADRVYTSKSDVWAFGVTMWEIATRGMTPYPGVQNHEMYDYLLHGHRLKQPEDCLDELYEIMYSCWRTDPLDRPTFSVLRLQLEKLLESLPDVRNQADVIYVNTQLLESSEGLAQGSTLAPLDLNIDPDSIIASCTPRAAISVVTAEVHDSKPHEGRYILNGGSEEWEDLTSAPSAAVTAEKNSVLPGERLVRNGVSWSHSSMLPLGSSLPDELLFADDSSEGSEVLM
The settings on record: at 10 µM.

For the compound `c1cnn2ncc(-c3ccnc(Nc4ccc5c(c4)OCCO5)n3)c2c1`, the inhibition (in general, the relative decrease from the control value, in per cent) in experiment [1] is 29% and 33%; in experiment [2], -3%.

Regarding `COc1cc(Nc2ncc(-c3ccccc3)o2)cc(OC)c1`, the inhibition in experiment [1] was 0% and 3%; in experiment [2], -9%.

In the case of `Cc1ccc(-c2cc3c(NC(=O)C4CC4)ncnc3o2)cc1`, the inhibition in experiment [1] was -2% and -3%; in experiment [2] it was 3%.

Turning to `NS(=O)(=O)c1ccc(Nc2cc(-c3cccc(O)c3)n[nH]2)cc1`, the inhibition in experiment [1] was -4% and -2%; in experiment [2], 2%.

With `CC1=C(C(=O)Nc2ccc3[nH]ncc3c2)C(c2ccc3ccccc3c2)CC(=O)N1` (configuration not stated), the inhibition in experiment [1] was -2% and -5%; in experiment [2], 47%.

As for `COc1cc2ncn(-c3cc(OCc4ccccc4C(F)(F)F)c(C(N)=O)s3)c2cc1OC`, the inhibition stood at 12% in experiment [1] and 10% in experiment [2].

Regarding `Cc1nnc(-c2cccc(-c3ccc(C(=O)NCC4CC4)cc3)c2)o1`, the inhibition in experiment [1] is -1% and -2%; in experiment [2] it was -4%.

In the case of `COc1ccc(-c2cc(-c3c[nH]nc3-c3ccccn3)ccn2)cc1`, the inhibition in experiment [1] was -4% and -2%; in experiment [2] it was -5%.

On to `NC(=O)c1sc(-n2cnc3cc(C(F)(F)F)ccc32)cc1OCc1ccccc1Br`, for which the inhibition was 3% and 6% in experiment [1]; 6% in experiment [2].

Turning to `COc1ccc(-c2oc3ncnc(N)c3c2-c2ccc(NC(=O)Nc3cc(C(F)(F)F)ccc3F)cc2)cc1`, the inhibition in experiment [1] was -3% and -1%; in experiment [2], -2%.

For the compound `NS(=O)(=O)c1ccc(N/N=C2\C(=O)Nc3ccc(Cl)cc32)cc1`, the inhibition in experiment [1] was 5% and 4%; in experiment [2] it was 2%.

Turning to `OCCCNc1nccc(-c2c(-c3ccc(F)cc3)nn3cc(C(F)(F)F)ccc23)n1`, the inhibition in experiment [1] was -2% and -5%; in experiment [2], 57%.

As for `CCn1c(-c2nonc2N)nc2cncc(C(=O)N3CC[C@H](N)C3)c21`, the inhibition was 32% and 36% in experiment [1]; 6% in experiment [2].

For `CS(=O)(=O)CCNCc1ccoc1-c1ccc2ncnc(Nc3ccc(OCc4ccccc4)cc3)c2c1`, the inhibition was 5% and 2% in experiment [1]; 88% in experiment [2].

`CCn1c(-c2nonc2N)nc2c(C#CC(C)(C)O)ncc(OC[C@@H]3CCCN3)c21`: the inhibition in experiment [1] is 65% and 66%; in experiment [2], -4%.

As to `CCn1c(-c2nonc2N)nc2c(C#CC(C)(C)O)ncc(OC3CCNCC3)c21`, the inhibition was 55% and 57% in experiment [1]; -5% in experiment [2].

With `CC(C)=Cc1cccc2c1/C(=N/Nc1ccc(S(N)(=O)=O)cc1)C(=O)N2`, the inhibition in experiment [1] is 46% and 45%; in experiment [2] it was 68%.

On to `CN(C)C(=O)O[C@@H]1CN[C@@H](C#Cc2cc3ncnc(Nc4ccc(OCc5cccc(F)c5)c(Cl)c4)c3s2)C1`, for which the inhibition is 12% and 7% in experiment [1]; 8% in experiment [2].

Take `CCS(=O)(=O)c1ccc(OC)c(Nc2nccc(N(C)c3ccc4c(C)n[nH]c4c3)n2)c1`: the figures for the inhibition in experiment [1] and in experiment [2] were 1% and -2%, respectively.

For `Cc1cc(-c2ccco2)cc(C)c1/C=C/c1cncc(-c2nn[nH]n2)c1`, the inhibition in experiment [1] was 5% and 3%; in experiment [2], 86%.

Regarding `CC(C)c1ccc(-c2cc(-c3c[nH]nc3-c3ccccn3)ccn2)cc1`, the inhibition in experiment [1] was -5% and -7%; in experiment [2] it was -10%.

Take `CN1CCC(C(=O)Nc2n[nH]c3nc(-c4ccc(O)cc4)c(Br)cc23)CC1`: the inhibition is 3% [middle of 4 runs] in experiment [1]; 15% and 7% in experiment [2].

As for `COc1cccc(-c2c[nH]c3c(N/N=C/c4ccncc4)ncnc23)c1`, the inhibition was 74% and 76% in experiment [1]; 85% in experiment [2].

Turning to `NS(=O)(=O)c1ccc(-c2ccc3c(NC(=O)C4CC4)n[nH]c3c2)cc1`, the inhibition in experiment [1] was -3% and 0%; in experiment [2], 11%.

For `NC(=O)c1ccc(Oc2nccc(-c3c(-c4ccc(F)cc4)ncn3C3CCNCC3)n2)cc1`, the inhibition in experiment [1] was 5% and 4%; in experiment [2], 3%.

As to `NS(=O)(=O)c1ccc(N/N=C2\C(=O)Nc3ccc4ncccc4c32)cc1`, the inhibition in experiment [1] is 76% and 77%; in experiment [2], -1%.

As for `Nc1nccc(C#Cc2cncnc2Nc2ccc(OCc3cccc(F)c3)c(Cl)c2)n1`, the inhibition in experiment [1] is 18% and 9%; in experiment [2] it was 13%.

As for `O=C(Nc1n[nH]c2nc(-c3ccco3)c(Br)cc12)C1CC1`, the inhibition in experiment [1] was 18% and 25%; in experiment [2], 83%.

In the case of `Fc1ccc(-c2ncn(C3CCNCC3)c2-c2ccnc(Oc3ccc4c(c3)OCO4)n2)cc1`, the inhibition in experiment [1] is -3% and -5%; in experiment [2] it was 6%.

For the compound `Fc1ccc(-c2ncn(C3CCNCC3)c2-c2ccnc(Oc3ccc(Oc4ccccc4)cc3)n2)cc1`, the inhibition in experiment [1] was 3% and 2%; in experiment [2], 0%.

Turning to `CNC(=O)c1cc(-c2ccc(F)cc2)cc(-c2ccc(S(=O)(=O)N3CCCC3)cc2)c1N`, the inhibition in experiment [1] is 4% and 2%; in experiment [2], -7%.
